# Experimental data: the supplement of paper PMC5770543
# ± gives the standard deviation.
# Tests used:
# [1] = system: Plasmodium falciparum 3D7; test: % inhibition of schizont-to-ring transition vs DMSO; higher = more inhibition
# Procedure, shortened: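 Schizont-to-ring transition inhibition compares new ring formation with that in vehicle controls. Synchronised P. falciparum schizonts (about 40–42 hours post-invasion, 1% parasitemia, 2.5% hematocrit, AlbuMAX-supplemented RPMI) were exposed to 1, 3 or 10 µM compound, after which rings were counted by Hoechst 33342 flow cytometry across three experiments.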
# [2] = system: Toxoplasma gondii RH tachyzoites; test: plaque count per well; higher = less inhibition; extreme values may be limits of the assay; details: 10 µM; 8-10 days
# Procedure, shortened: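 The per-well plaque count reflects delayed-death inhibition of parasite growth. Each well of a six-well plate with a confluent HFF monolayer, preseeded with compound at 10 µM, was given fifty T. gondii RH tachyzoites. Plates sat undisturbed for 8 to 10 days before methanol fixation and crystal violet staining. Plaques were then imaged and counted per well with ImageJ, alongside untreated wells and wells treated with 1% DMSO.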
# [3] = system: Plasmodium falciparum K1 (chloroquine resistant); test: R50 (50% reduction of ring formation, egress/invasion); higher = less potent
# Description: (§1)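 P. falciparum asexual blood stages. EC50: sorbitol-synchronized 3D7 rings were treated with 2-fold dilutions from 10 µM for 60 h, with parasitemia read by SYBR Green I fluorescence; EC50 listed as 10 means not determined and is left out. Stage transition screen: ~40-42 hpi schizonts were treated at 1, 3 and 10 µM; new rings were counted by Hoechst flow cytometry and % inhibition is relative to DMSO controls (mean of 3 experiments). R50: concentration giving 50% reduction of new ring formation versus DMSO in 3D7, K1 and KH004-003, from flow cytometry after 12-20 h treatment of schizonts.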
# [4] = system: Plasmodium falciparum 3D7; test: as above
# Description: as §1
# [5] = system: Plasmodium falciparum KH004-003 (artemisinin resistant); test: as above
# Description: as §1
# [6] = system: Toxoplasma gondii RH tachyzoites; test: % growth inhibition vs DMSO (48 h luciferase); higher = more inhibition; details: 10 µM
# [7] = system: Plasmodium falciparum 3D7; test: EC50 growth inhibition (60 h, SYBR Green); details: stage: ring-stage start
# [8] = system: Toxoplasma gondii RH tachyzoites; test: median egress time after A23187 ionophore; higher = stronger egress inhibition; details: 10 µM; pretreatment time: 24 h
# Description: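 T. gondii RH tachyzoites expressing firefly luciferase were grown in HFF monolayers for 48 h with compound. % growth inhibition at 10 µM and EC50 (2-fold dilutions from 10 µM) were read by luminescence relative to 1% DMSO; EC50 listed as 10 (not determined, <80% inhibition) is left out. Plaque assays: 50 tachyzoites per well with 10 µM compound for 8-10 days, giving plaque count and area by crystal violet/ImageJ. Egress: median time to egress after 1 µM A23187 ionophore following 24 h of 10 µM compound (DMSO ~1.8 min; >10 = no egress within 10 min).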
# [9] = molecular target: Toxoplasma gondii RH tachyzoites; test: EC50 growth inhibition (48 h luciferase)
# 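Throughout, for % growth inhibition vs DMSO (48 h luciferase): tested in triplicate wells of 96-well plates on confluent HFF monolayers, with 1% DMSO wells as negative control in four replicates.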
SMILES,% inhibition of schizont-to-ring transition ([1]; 1 µM) [%],% inhibition of schizont-to-ring transition ([1]; 3 µM) [%],% inhibition of schizont-to-ring transition ([1]; 10 µM) [%],plaque count per well [2],R50 [3] [µM],R50 [4] [µM],R50 [5] [µM],% growth inhibition [6] [%],EC50 growth inhibition [7] [nM],median egress time [8] [min],EC50 growth inhibition [9] [nM]
COc1ccc(NC(=O)C2c3ccccc3C(=O)N(CC(C)C)C2c2cccs2)cc1Cl (stereo not drawn),75.7,74.9,78.9,28,0.183,0.156,0.204,< 0,1040,–,–
Cn1c(C(=O)c2cccc3ccccc23)nc2ccccc21,53,65.5,70.2,24,–,–,–,9.52 ± 8.7,147,2.4,–
CCCCCCc1cc2cc(-c3csc(C=Cc4ccccc4)n3)c(=O)oc2cc1O,9.04,16,39.7,16,–,–,–,8.97 ± 4.1,8400,1.94,–
OC(Cn1nnc2ccccc21)Cn1c2ccc(Br)cc2c2cc(Br)ccc21 (stereo not drawn),< 0,30.6,45.7,–,1.23,2.87,0.102,22.8 ± 3.4,–,–,–
Cc1sc2ncnc(Sc3nc4ccccc4[nH]3)c2c1C,47.8,59.6,77.8,–,1.69,2.43,0.464,95.05 ± 0.6,860,–,2950
Cc1cc(C)c2c(c1)OCN(Cc1ccccc1Cl)C2,< 0,17.9,59.9,27,–,–,–,4.95 ± 8.6,3620,2,–
CCCC(c1nnnn1C1CCCCC1)N1CCN(C(=O)c2ccco2)CC1 (stereo not drawn),9.2,14.6,32.1,24,–,–,–,9.52 ± 8.7,1470,2.4,–
Oc1ccc(-c2nc(-c3ccc4oc5ccc(-c6[nH]c(-c7ccc(O)cc7)nc6-c6ccccc6)cc5c4c3)c(-c3ccccc3)[nH]2)cc1,8.13,15.7,48.8,11,–,–,–,< 0,1890,1.47,–
COc1ccc2sc(N(Cc3cccnc3)C(=O)c3ccc(C#N)cc3)nc2c1,35.3,39.1,51.7,21,–,–,–,< 0,6590,> 10,–
COc1cccc(-c2nn(C)c3sc(C(=O)NCCN4CCN(c5ccccc5F)CC4)cc23)c1,12.9,36.3,60.8,31,–,–,–,1.85 ± 3.2,4200,2.93,–
CCOc1cccc(C(=O)Nc2ccc(-c3nc4ccccc4[nH]3)cc2)c1,7.94,22.4,54.6,28,–,–,–,< 0,–,1.87,–
Cc1ccc(C)c(-c2csc(Nc3ccc(C)c(C)c3)n2)c1,13.5,16,20.4,22,–,–,–,< 0,–,3.2,–
Oc1ccc(Br)cc1CN1CCN(Cc2cccc(F)c2)CC1,19,40.9,60.6,21,–,–,–,6.13 ± 7.3,787,2.27,–
Cc1cc(NC(=O)c2ccc(-c3ccccc3)cc2)no1,45.3,53.4,61.7,26,–,–,–,< 0,1810,2.27,–
COc1ccc(C(=O)C(CCC(CNC(C)(C)C)C(=O)c2ccc(OC)cc2)CNC(C)(C)C)cc1 (stereo not drawn),< 0,16.3,66.1,0,–,–,–,89.2 ± 2.7,1450,–,1510
COc1cc(-c2nc(-c3ccccc3)c(-c3ccccc3)[nH]2)cc(OC)c1O,13.7,15.2,37.4,22,–,–,–,6.6 ± 11,8620,2.93,–
O=C(NC1CCCCC1)C(c1cccs1)N(CCc1ccccc1)C(=O)c1ccco1 (stereo not drawn),38.6,42,46.4,39,–,–,–,< 0,1720,2.06,–
CCOc1cc(Cl)c(C(C)NC(=O)c2ccccc2)cc1OCC (stereo not drawn),46.5,78.6,76.7,22,–,–,–,< 0,1450,2.67,–
CC(=O)Nc1nnc(SCc2c(C)cc(C(C)(C)C)cc2C)s1,42.7,46.5,55.4,21,–,–,–,< 0,–,2.4,–
O=C(NC1CCN(Cc2ccccc2)CC1)c1cc(-c2cccnc2)nc2ccc(Cl)cc12,13.5,17.4,37.7,34,–,–,–,19.7 ± 17,2560,2.67,–
COc1ccccc1C(=O)ON=C(N)Cc1cccc2ccccc12,12,43.7,78.8,–,3.93,3.9,1.25,73.6 ± 2.5,244,–,–
Oc1ccccc1CN1CCC2(CCCN(Cc3ccccc3F)C2)C1 (stereo not drawn),31.4,37.7,60.6,26,–,–,–,< 0,1140,2.13,–
OC(CNC1CCCCC1)Cn1c2ccc(I)cc2c2cc(I)ccc21 (stereo not drawn),39.7,69,73.8,3,–,–,–,< 0,591,1.33,–
Cc1c(C)n(CC(O)CNC2CCCCC2C)c2ccccc12 (stereo not drawn),14.4,32.3,64.2,23,–,–,–,< 0,2180,3.07,–
CCOc1ccccc1CN1CCc2nc3cc(C(C)(C)C)nn3c(O)c2C1,34.2,42.8,49.8,28,–,–,–,< 0,2290,1.47,–

SMILES,% inhibition of schizont-to-ring transition ([1]; 1 µM) [%],% inhibition of schizont-to-ring transition ([1]; 3 µM) [%],% inhibition of schizont-to-ring transition ([1]; 10 µM) [%],plaque count per well [2],R50 [3] [µM],R50 [4] [µM],R50 [5] [µM],% growth inhibition [6] [%],EC50 growth inhibition [7] [nM],median egress time [8] [min],EC50 growth inhibition [9] [nM]
FC(F)(F)c1ccc(Nc2nnnc3ccccc23)cc1,< 0,4.32,52.7,–,–,–,–,83.5 ± 1.2,1020,–,681
Cc1cc(N(C)C)nc(Nc2ccc(NC(=O)Nc3ccccc3)cc2)n1,41.8,56.5,71.1,–,–,–,–,95.4 ± 1.2,236,–,1990
CCN(CC)c1ccc(NC(=O)c2cccs2)cc1,< 0,3.66,31.7,–,–,–,–,91.4 ± 2.7,2110,–,1650
Oc1ccc(Cl)cc1CNc1nc2ccccc2[nH]1,22.5,38.5,58.6,–,–,–,–,96.5 ± 1.9,1420,–,1310
COc1ccc(-c2nc(N3CCN(C(=O)C4CCCCC4)CC3)c3c4c(sc3n2)CCCC4)cc1,10.6,17.7,44.9,–,–,–,–,86 ± 3.8,4080,–,3080
Nc1ccc(-c2nc3cc(Oc4ccc(Oc5ccc6[nH]c(-c7ccc(N)cc7)nc6c5)cc4)ccc3[nH]2)cc1,23.6,43.2,60.7,–,–,–,–,100.27 ± 0.078,253,–,1610
CC(C)OCc1cc(CN2CCN(c3cccc(Cl)c3)CC2)c(O)c2ncccc12,7.59,35.5,53.9,–,–,–,–,81.6 ± 18,3170,–,1690
COc1ccc(/C=C2/SC(Nc3ccc(F)cc3)=NC2=O)c(OC)c1,23.5,31.5,54.2,–,–,–,–,92 ± 2.3,880,–,7.69
COc1cccc(O)c1CN1CCC2(CCCN(Cc3ccc(F)cc3)C2)C1 (stereo not drawn),42.2,68.4,72.4,–,0.805,1.91,1.23,79.6 ± 3.5,409,–,–
CCCCNCC(O)(c1ccc(Cl)cc1)c1ccc(Cl)cc1,8.52,48.1,70.3,–,–,–,–,97.55 ± 0.55,527,–,6550
CCOC(=O)c1cn(CC)c2cc(N3CCCCC3)c(F)cc2c1=O,45.5,61.4,65.5,–,1.48,0.738,0.155,67.3 ± 6.7,670,–,–
COc1cc(-c2nc(-c3ccc(Sc4ccccc4)cc3)c(-c3ccccc3)[nH]2)cc(OC)c1O,< 0,< 0,45.4,–,–,–,–,98.59 ± 0.34,449,–,1320
CCn1nc(-c2ccc(C(=O)OC)cc2)nc2c(=O)n(C)c(=O)nc1-2,30.7,37.6,53.3,–,–,–,–,100.5 ± 0.19,107,–,2200
c1ccc(CNc2nc(Nc3ccccc3)nc3ccccc23)cc1,44.8,51.2,66.8,–,–,–,–,99.917 ± 0.022,181,–,708
Cc1cc(N2CCCC2)nc(Nc2ccc(NC(=O)CCc3ccccc3)cc2)n1,55.6,62.1,67.5,–,–,–,–,96.07 ± 0.93,139,–,102
CCOC(=O)C1=CN(C)C=C(C(=O)OCC)C1c1cc(Br)c(OCC)c(OC)c1,41.2,58.3,58.9,–,–,–,–,95.51 ± 0.24,1040,–,2590
O=c1c2c([nH]c3ccccc13)CCCC2,13.7,22.2,42.9,–,–,–,–,89.6 ± 1.1,1790,–,1040
N=c1n(CCN2CCCCC2)c2ccccc2n1CC(=O)c1ccc(Cl)c(Cl)c1,36.2,57.9,80.4,–,–,–,–,99.931 ± 0.065,237,–,1820
OC(CNCC1CCCO1)Cn1c2ccc(Cl)cc2c2cc(Cl)ccc21 (stereo not drawn),5.57,44.1,65.7,–,–,–,–,99.23 ± 0.57,394,–,4460
CCN(CC)CCCNc1nc(-c2ccc(Cl)cc2)nc2ccccc12,44.9,45.1,58.3,–,–,–,–,80.8 ± 4.8,3520,–,122
COc1ccc(Nc2nc(NCc3ccccc3)c3ccccc3n2)cc1,26.4,34.8,48,–,–,–,–,100.5 ± 0.45,104,–,763
CC(NCc1ccccc1)c1cc(Cl)ccc1O (stereo not drawn),29.2,44.4,66.6,29,–,–,–,14.9 ± 6,801,2.27,–
CCOc1ccccc1CNC(=O)C1c2ccccc2C(=O)N(CC(C)C)C1c1cccs1 (stereo not drawn),38.3,65.3,74.8,–,2.11,2.06,2.32,70.7 ± 11,649,–,–
COCCN(C(=O)Cc1cccs1)C(C(=O)NCc1ccc(OC)cc1)c1ccc(C(C)C)cc1 (stereo not drawn),10.9,13.7,21.6,–,–,–,–,91.5 ± 3.5,935,–,2420
